Reference: patent publication US20260042734A1, “HETEROCYCLIC RING-SUBSTITUTED AROMATIC COMPOUND, PREPARATION METHOD THEREFOR, AND USE THEREOF” (SHANGHAI HENLIUS BIOTECH, INC., priority 2023, published 2026)

molecular target: human Kv1.3 (hKv1.3) channels (Homo sapiens (Human), UniProt P22001); test: Electrophysiological (whole-cell patch clamp) determination of inhibitory activity on Kv1.3 channels; assay type: cell-based; conditions: HEK293T cells expressing hKv1.3; Hill fit of peak current inhibition
Sequence (P22001 whole entry): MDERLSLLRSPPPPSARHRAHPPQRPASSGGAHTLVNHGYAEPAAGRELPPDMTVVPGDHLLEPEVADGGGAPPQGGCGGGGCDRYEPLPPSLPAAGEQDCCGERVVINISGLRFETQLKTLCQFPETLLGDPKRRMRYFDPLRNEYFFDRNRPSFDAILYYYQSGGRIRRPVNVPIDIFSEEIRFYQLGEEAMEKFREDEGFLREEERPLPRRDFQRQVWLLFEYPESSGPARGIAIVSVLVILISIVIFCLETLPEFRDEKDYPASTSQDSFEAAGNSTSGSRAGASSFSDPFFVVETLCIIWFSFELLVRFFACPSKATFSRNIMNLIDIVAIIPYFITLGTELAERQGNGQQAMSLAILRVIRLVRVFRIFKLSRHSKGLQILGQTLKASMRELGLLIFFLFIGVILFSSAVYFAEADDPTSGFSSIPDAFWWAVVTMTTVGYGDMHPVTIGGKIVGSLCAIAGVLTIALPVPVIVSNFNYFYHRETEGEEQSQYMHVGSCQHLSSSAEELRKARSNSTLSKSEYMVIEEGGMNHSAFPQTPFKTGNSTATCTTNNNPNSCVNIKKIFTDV
Experimental: Test Example 1: Determination of Inhibitory Activity of Compounds on Kv1.3 (hKv1.3) Channels
Electrophysiological Testing
Potassium currents were measured using HEK293T cells expressing human Kv1.3 (hKv1.3) channels.
Prior to the start of electrophysiological experiments, Kv1.3 cell lines should be maintained within 70% of the maximum density in the logarithmic growth phase. All reagents should be pre-warmed to 37° C. before use. • 1) Aspirate the spent medium from the 6 cm culture dish. • 2) Add 1 mL of PBS, gently rock the dish to rinse the bottom, and then remove the PBS. • 3) Add 1 mL of trypsin, and gently rock the dish to ensure the trypsin covers all the cells. • 4) Incubate at 37° C. for 2-3 minutes, and then gently pipette the cells to suspend the adherent cells. • 5) Transfer the cell suspension to a new centrifuge tube and centrifuge at 1000 rpm for 5 minutes. Adjust the cell concentration to 2×10^3 cells/mL, and then seed 300 μL of the cell suspension into each well of a 24-well plate containing cell climbing slides. Perform patch clamp experiments after the cells adhered properly.
The intracellular and extracellular solutions used were designed to mimic the cell physiological ionic composition.
Kv1.3 extracellular solution: 137 mM NaCl, 1 mM MgCl2·6H2O, 4 mM KCl, 1.8 mM CaCl2·2H2O, 10 mM D-Glucose, 10 mM HEPES, pH adjusted to 7.4 with NaOH.
Kv1.3 intracellular solution: 140 mM KCl, 10 mM EGTA, 5 mM MgCl2·6H2O, 10 mM HEPES, […], pH adjusted to 7.2 with KOH.
Test Compound Dissolution
• 1) The test compound was dissolved in DMSO to prepare a 30 mM stock solution. • 2) The stock solution of the test compound was serially diluted with DMSO to obtain secondary stock solutions at concentrations of 300 μM, 100 μM, 30 μM, 10 μM, and 3 μM. • 3) 10 μL of each secondary stock solution was diluted into 10 mL of extracellular solution to achieve final concentrations of 300 nM, 100 nM, 30 nM, 10 nM, and 3 nM for electrophysiological testing.
Kv1.3 potassium current data were collected and stored on a computer using Patchmaster software via an EPC-10 amplifier. • 1) The cell climbing slide was removed from the cell culture dish using forceps, immersed with extracellular solution, and placed into the bath chamber on the stage of an inverted microscope. • 2) Glass micropipettes were pulled using a P-1000 micropipette puller, filled one-third of their volume with intracellular solution, and then mounted onto an electrode holder. • 3) Using a motorized micromanipulator (Scientifica-Double 1U), the recording electrode was brought into contact with the cell surface. […] The positive pressure was removed, and a negative pressure of 0.5 cm H2O was applied. It was observed that the sealing resistance increased rapidly until it reached the gigaseal. When the sealing resistance between the recording electrode and the cell membrane was >1 GΩ, negative pressure was applied to rupture the membrane to form the whole-cell recording mode. After the ruptured membrane stabilized, the membrane capacitance (Cs) and series resistance (Rs) were compensated. • 4) Stimulation procedure: the cell was voltage-clamped at −80 mV, depolarized to 40 mV for a duration of 200 ms, and then repolarized to −80 mV. Currents were recorded every 10 s. • 5) Kv1.3 potassium channel currents were recorded at room temperature prior to drug application. After the control current value reached a steady state (indicated by overlapping of the four most consecutive current traces), cumulative drug application was performed. The negative control (0.1% DMSO) was applied first, followed by […] of the drugs.
Raw Kv1.3 current peak data were extracted from PatchMaster software. The current inhibition rate was calculated as follows: Peak current inhibition rate=((1−(Peak current compound)/(Peak current vehicle))). […]

IC50 [µM]	Compound
0.005 to 0.01	OCCCN1C[C@H](c2c(O)ccc(Cl)c2Cl)CC1=S [Compound 1-1, (S)-4-(2,3-Dichloro-6-hydroxyphenyl)-1-(3-hydroxypropyl)pyrrolidine-2-thione]
0.01 to 0.03	OCC(F)(F)CN1C[C@H](c2c(O)ccc(Cl)c2Cl)CC1=S [Compound 121-1, (S)-4-(2,3-Dichloro-6-hydroxyphenyl)-1-(2,2-difluoro-3-hydroxypropyl)pyrrolidine-2-thione]
0.005 to 0.01	Oc1ccc(Cl)c(Cl)c1[C@@H]1CC(=S)N([C@H]2C[C@H](O)C2)C1 [Compound 124-1, (S)-4-(2,3-Dichloro-6-hydroxyphenyl)-1-((1r,3r)-3-hydroxycyclobutyl)pyrrolidine-2-thione]
≤ 0.005	Oc1ccc(Cl)c(Cl)c1[C@@H]1CC(=S)N(C[C@H]2C[C@H](O)C2)C1 [Compound 129-1, (S)-4-(2,3-Dichloro-6-hydroxyphenyl)-1-(((1r,3r)-3-hydroxycyclobutyl)methyl)pyrrolidine-2-thione]
≤ 0.005	OCCCCN1C[C@H](c2c(O)ccc(Cl)c2Cl)CC1=S [Compound 130-1, (S)-4-(2,3-Dichloro-6-hydroxyphenyl)-1-(4-hydroxybutyl)pyrrolidine-2-thione]
0.005 to 0.01	Oc1ccc(Cl)c(Cl)c1[C@@H]1CC(=S)N(c2cnn3c2CCC3)C1 [Compound 159-1, (S)-4-(2,3-Dichloro-6-hydroxyphenyl)-1-(5,6-dihydro-4H-pyrrolo[1,2-b]pyrazol-3-yl)pyrrolidine-2-thione]
0.01 to 0.03	O=C1C[C@@H](c2c(O)ccc(Cl)c2Cl)CN1CCCO [Compound W1, reference compound]
0.01 to 0.03	NCCCN1C[C@H](c2c(O)ccc(Cl)c2Cl)CC1=O [Compound W2, reference compound]
≤ 0.005	(S)-4-(2,3-Dichloro-6-hydroxyphenyl)-1-(1- methyl-1H-pyrazol-4-yl)pyrrolidine-2- thione [Compound 40-1]

same assay, conditions: HEK-293T; compound concentration 10 nM; HEK293T cells expressing hKv1.3; peak current inhibition; read-out: 10 nM inhibition rate (Kv1.3)

inhibition at 0.01 µM [%]	Compound
0 to 5	COc1ccc(N2CC(c3c(O)ccc(Cl)c3Cl)CC2=S)cn1 (racemic) [Compound 165, rac-4-(2,3-dichloro-6-hydroxyphenyl)-1-(6-methoxypyridin-3-yl)pyrrolidine-2-thione]
0 to 5	COc1cc(N2CC(c3c(O)ccc(Cl)c3Cl)CC2=S)ccn1 (racemic) [Compound 166, rac-4-(2,3-dichloro-6-hydroxyphenyl)-1-(2-methoxypyridin-4-yl)pyrrolidine-2-thione]
0 to 5	Cc1cc(N2CC(c3c(O)ccc(Cl)c3Cl)CC2=S)ccn1 (racemic) [Compound 167, rac-4-(2,3-dichloro-6-hydroxyphenyl)-1-(2-methylpyridin-4-yl)pyrrolidine-2-thione]
< 0	O=C1N(CCCO)CC(c2c(O)ccc(Cl)c2Cl)C1(F)F (racemic) [Compound 168, rac-4-(2,3-dichloro-6-hydroxyphenyl)-3,3-difluoro-1-(3-hydroxypropyl)pyrrolidin-2-one]
< 0	O=C1N(CCCO)CC(c2c(O)ccc(Cl)c2Cl)C12CC2 (racemic) [Compound 169, rac-7-(2,3-dichloro-6-hydroxyphenyl)-5-(3-hydroxypropyl)-5-azaspiro[2.4]heptan-4-one]
< 0	Cn1cncc1N1CC(c2c(O)ccc(Cl)c2Cl)CC1=S (stereo not shown) [Compound 42, 4-(2,3-Dichloro-6-hydroxyphenyl)-1-(1-methyl-1H-imidazol-5-yl)pyrrolidine-2-thione]
0 to 5	Cc1ncc(N2CC(c3c(O)ccc(Cl)c3Cl)CC2=S)s1 (stereo not shown) [Compound 43, 4-(2,3-Dichloro-6-hydroxyphenyl)-1-(2-methylthiazol-5-yl)pyrrolidine-2-thione]
0 to 5	CS(=O)(=O)NCCCN1CC(c2c(O)ccc(Cl)c2Cl)CC1=O (stereo not shown) [Compound 76, N-(3-(4-(2,3-Dichloro-6-hydroxyphenyl)-2-oxopyrrolidin-1-yl)propyl)methanesulfonamide]
0 to 5	NS(=O)(=O)CCN1CC(c2c(O)ccc(Cl)c2Cl)CC1=O (stereo not shown) [Compound 77, 2-(4-(2,3-Dichloro-6-hydroxyphenyl)-2-oxopyrrolidin-1-yl)ethane-1-sulfonamide]
0 to 5	CS(=N)(=O)CCN1CC(c2c(O)ccc(Cl)c2Cl)CC1=O (stereo not shown) [Compound 78, 4-(2,3-Dichloro-6-hydroxyphenyl)-1-(2-(S-methylsulfonylimino)ethyl) pyrrolidin-2-one]
< 0	CS(=O)(=O)CCN1CC(c2c(O)ccc(Cl)c2Cl)CC1=O (stereo not shown) [Compound 79, 4-(2,3-Dichloro-6-hydroxyphenyl)-1-(2-(methylsulfonyl)ethyl)pyrrolidin-2-one]
50 to 75	C=Cn1cc(N2CC(c3c(O)ccc(Cl)c3Cl)CC2=O)cn1 (stereo not shown) [Compound 90, 4-(2,3-Dichloro-6-hydroxyphenyl)-1-(1-vinyl-1H-pyrazol-4-yl)pyrrolidin-2-one]
≥ 75	O=C1CC(c2c(O)ccc(Cl)c2Cl)CN1C1CC2(CNC2)C1 (stereo not shown) [Compound 100, 4-(2,3-Dichloro-6-hydroxyphenyl)-1-(2-azaspiro[3.3]heptan-6-yl)pyrrolidin-2-one]
50 to 75	NC1CC2(C1)CC(N1CC(c3c(O)ccc(Cl)c3Cl)CC1=O)C2 (stereo not shown) [Compound 101, 1-(6-Aminospiro[3.3]heptan-2-yl)-4-(2,3-dichloro-6-hydroxyphenyl) pyrrolidin-2-one]
0 to 5	CONCCCN1CC(c2c(O)ccc(Cl)c2Cl)CC1=O (stereo not shown) [Compound 104, 4-(2,3-Dichloro-6-hydroxyphenyl)-1-(3-(methoxyamino)propyl)pyrrolidin-2-one]
< 0	CON(C)CCCN1CC(c2c(O)ccc(Cl)c2Cl)CC1=O (stereo not shown) [Compound 105, 4-(2,3-Dichloro-6-hydroxyphenyl)-1-(3-(methoxy(methyl)amino)propyl) pyrrolidin-2-one]
< 0	NC(=S)CCN1CC(c2c(O)ccc(Cl)c2Cl)CC1=O (stereo not shown) [Compound 113, 3-(4-(2,3-Dichloro-6-hydroxyphenyl)-2-oxopyrrolidin-1-yl)propanethioamide]
0 to 5	N=C(N)CCN1CC(c2c(O)ccc(Cl)c2Cl)CC1=O (stereo not shown) [Compound 114, 3-(4-(2,3-Dichloro-6-hydroxyphenyl)-2-oxopyrrolidin-1-yl)propionimide]
25 to 50	O=C(CCN1CC(c2c(O)ccc(Cl)c2Cl)CC1=O)NO (stereo not shown) [Compound 115, 3-(4-(2,3-Dichloro-6-hydroxyphenyl)-2-oxopyrrolidin-1-yl)-N-hydroxypropionamide]
< 0	CN(O)C(=O)CCN1CC(c2c(O)ccc(Cl)c2Cl)CC1=O (stereo not shown) [Compound 116, 3-(4-(2,3-Dichloro-6-hydroxyphenyl)-2-oxopyrrolidin-1-yl)-N-hydroxy-N-methylpropionamide]
0 to 5	CONC(=O)CCN1CC(c2c(O)ccc(Cl)c2Cl)CC1=O (stereo not shown) [Compound 117, 3-(4-(2,3-Dichloro-6-hydroxyphenyl)-2-oxopyrrolidin-1-yl)-N-methoxypropionamide]
25 to 50	O=C1CC(c2c(O)ccc(Cl)c2Cl)CN1CCNO (stereo not shown) [Compound 118, 4-(2,3-Dichloro-6-hydroxyphenyl)-1-(2-(hydroxyamino)ethyl)pyrrolidin-2-one]
0 to 5	NOCCN1CC(c2c(O)ccc(Cl)c2Cl)CC1=O (stereo not shown) [Compound 119, 1-(2-(Aminooxy)ethyl)-4-(2,3-dichloro-6-hydroxyphenyl)pyrrolidin-2-one]
< 0	NOCCCN1CC(c2c(O)ccc(Cl)c2Cl)CC1=O (stereo not shown) [Compound 120, 1-(3-(Aminooxy)propyl)-4-(2,3-dichloro-6-hydroxyphenyl)pyrrolidin-2-one]
25 to 50	O=C1C[C@@H](c2c(O)ccc(Cl)c2Cl)CN1CCCO [Compound W1, reference compound]
